Patent publication US6410037B1, “Anti-pruritic compositions” (Roche Consumer Health AG, priority 1999, dated 2002)

Columns and labels:
[1] = system: human skin tissue; assay: Histamine release by human skin discs stimulated by substance P (ELISA); format: cell-based
Description: Test were carried out on peritoneal mastocytes of rat stimulated by the substance P (10 μM), or on human skin tissue.
The skin tissue assay system was prepared from normal adult skin collected after abdominal plastic surgery. The subject was a person (subject M1085). The skin tissue specimen was rinsed in Krebs bicarbonate solution consisting of: NaCl 118 mM; KCl 5.4 mM; NaH2PO4 1 mM; MgSO4 1.2 mM, CaCl2 1.9 mM; NaHCO3 25 mM and D-glucose 11.1 mM. Skin discs of about 8 mm of diameter were performed. Skin discs were cultured in RPMI 1640 medium supplemented with penicillin (100 UI/ml), streptomycin (110 μg/ml) and 2 mM glutamine. Skin discs were maintained at 37° C. in a humidified incubator under a 5% Co2/95% air atmosphere. Test products were incubated with the human skin discs and 100 μM of substance P for 2 hours at 37° C.
At the end of the incubation, histamine released by the human skin discs was quantified by ELISA (IMMUNOTECH). The results were expressed as pmoles of histamine released per gram of skin. Data groups (control and treated groups) were compared using a one-way analysis of variance (ANOVA 1, p<0.05), following by a Dunnett's test (p<0.05).

[2] = system: peritoneal mastocytes of rat; assay: Histamine release by peritoneal mastocytes of rat stimulated by substance P (spectrofluorimetry with OPT); format: cell-based; conditions: 10 μg/ml Ca-panthothenate and 7.5 μg/ml glycine, taken separately or together; substance P 10 μM
Description: Peritoneal mastocytes of rat were incubated with the test products and the substance P for 2 minutes at 37° C. in the following medium: sodium phosphate buffer 4 mM; potassium phosphate buffer 2.7 mM; NaCl 0.145 M; KCl 2.7 mM; CaCl2 0.9 mM; BSA (bovine serum albumin 0.175% (w/v). At the end of the incubation, histamine released by the mastocytes was quantified by spectrofluorimetry with ortho-phthalaldehyde (OPT) (R. Hakanson, A. I. Ronnberg and K. Sjolund, Analy. Biochem., 47,1972, pp. 356-370). The measurements were carried out by means of a multiplate spectrofluorimeter (Cytofluor 2350, MILLIPORE). Data groups (control and treated groups) were compared using a one-way analysis of variance (ANOVA 1, p<0.05), following by a Dunnett' test (p<0.05).

[3] = system: mastocytes; conditions: cited from earlier work

| Compound | Effect of addition of glycine to Ca-pantothenate on inhibition of histamine release (in words) ([1]; glycine 75 μg/ml added to Ca-pantothenate 100 μg/ml) | Inhibition of histamine release (in words) [2] | Histamine release by mastocytes (in words) [3] | Inhibition of histamine release (in words) ([1]; already at a concentration of 25 μg/ml) |
| --- | --- | --- | --- | --- |
| NCC(=O)O [Glycine] | further improves such inhibition | do not act as inhibitors | inhibits histamine release by mastocytes |  |
| calcium pantothenate [Ca-pantothenate] |  | do not act as inhibitors |  | acts as inhibitor of the histamine release |
